Reference: US12448369B2 (Edgewise Therapeutics, Inc., priority 2023, dated 2025)

Assays:
[1] = test system: Rabbit Psoas myofibrils (skeletal myosin ATPase); experiment: Myofibril ATPase assay, rabbit psoas (skeletal) myofibrils; type: biochemical; settings: rabbit psoas myofibrils; Y75 value
Procedure, shortened: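 Myofibrils homogenized in Triton X-100 buffer were assayed in pH 7.0 PIPES with defined Ca2+/EGTA. Myosin-driven ADP formation was coupled to NADH oxidation, with depletion monitored at 340 nm. Each value is the concentration that lowers activity to 75% of vehicle or, for activators, raises it to 125%.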

[2] = test system: Porcine atria myofibrils (atrial myosin ATPase); experiment: Myofibril ATPase assay, porcine atria myofibrils; type: biochemical; settings: porcine atria myofibrils; Y75 value (75% activity relative to no compound)
Procedure, shortened: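 Values are Y75 (concentration cutting ATPase activity to 75% of vehicle) or Y125 (raising it to 125%), taken from 4-parameter logistic fits. Rates come from NADH disappearance at 340 nm in a PK/LDH-coupled assay with porcine atria myofibrils.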

[3] = biological target: T1, Porcine ventricle myofibrils (ventricular myosin ATPase) (Sus scrofa, UniProt P79293); experiment: Myofibril ATPase assay, porcine ventricle myofibrils; type: biochemical, porcine (Yucatan minipigs); settings: porcine ventricle myofibrils; Y75 value
T1 construct: Myofibrils from porcine cardiac muscle was isolated from the left ventricle of Yucatan minipigs; tissue Exemplar Genetics; host or cells: left ventricle of Yucatan minipigs, myofibrils prepared in house
Procedure, shortened: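 ATPase activity of porcine left-ventricle myofibrils (Yucatan minipig) was followed through PK-LDH coupling as NADH loss at 340 nm, read every 1.5-2 min for 75 min. Slopes were normalised to vehicle wells and fitted to a 4-parameter logistic model. Values are Y75, the concentration giving a 25% drop in activity, or Y125 for activators.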

T1 sequence (P79293 whole entry): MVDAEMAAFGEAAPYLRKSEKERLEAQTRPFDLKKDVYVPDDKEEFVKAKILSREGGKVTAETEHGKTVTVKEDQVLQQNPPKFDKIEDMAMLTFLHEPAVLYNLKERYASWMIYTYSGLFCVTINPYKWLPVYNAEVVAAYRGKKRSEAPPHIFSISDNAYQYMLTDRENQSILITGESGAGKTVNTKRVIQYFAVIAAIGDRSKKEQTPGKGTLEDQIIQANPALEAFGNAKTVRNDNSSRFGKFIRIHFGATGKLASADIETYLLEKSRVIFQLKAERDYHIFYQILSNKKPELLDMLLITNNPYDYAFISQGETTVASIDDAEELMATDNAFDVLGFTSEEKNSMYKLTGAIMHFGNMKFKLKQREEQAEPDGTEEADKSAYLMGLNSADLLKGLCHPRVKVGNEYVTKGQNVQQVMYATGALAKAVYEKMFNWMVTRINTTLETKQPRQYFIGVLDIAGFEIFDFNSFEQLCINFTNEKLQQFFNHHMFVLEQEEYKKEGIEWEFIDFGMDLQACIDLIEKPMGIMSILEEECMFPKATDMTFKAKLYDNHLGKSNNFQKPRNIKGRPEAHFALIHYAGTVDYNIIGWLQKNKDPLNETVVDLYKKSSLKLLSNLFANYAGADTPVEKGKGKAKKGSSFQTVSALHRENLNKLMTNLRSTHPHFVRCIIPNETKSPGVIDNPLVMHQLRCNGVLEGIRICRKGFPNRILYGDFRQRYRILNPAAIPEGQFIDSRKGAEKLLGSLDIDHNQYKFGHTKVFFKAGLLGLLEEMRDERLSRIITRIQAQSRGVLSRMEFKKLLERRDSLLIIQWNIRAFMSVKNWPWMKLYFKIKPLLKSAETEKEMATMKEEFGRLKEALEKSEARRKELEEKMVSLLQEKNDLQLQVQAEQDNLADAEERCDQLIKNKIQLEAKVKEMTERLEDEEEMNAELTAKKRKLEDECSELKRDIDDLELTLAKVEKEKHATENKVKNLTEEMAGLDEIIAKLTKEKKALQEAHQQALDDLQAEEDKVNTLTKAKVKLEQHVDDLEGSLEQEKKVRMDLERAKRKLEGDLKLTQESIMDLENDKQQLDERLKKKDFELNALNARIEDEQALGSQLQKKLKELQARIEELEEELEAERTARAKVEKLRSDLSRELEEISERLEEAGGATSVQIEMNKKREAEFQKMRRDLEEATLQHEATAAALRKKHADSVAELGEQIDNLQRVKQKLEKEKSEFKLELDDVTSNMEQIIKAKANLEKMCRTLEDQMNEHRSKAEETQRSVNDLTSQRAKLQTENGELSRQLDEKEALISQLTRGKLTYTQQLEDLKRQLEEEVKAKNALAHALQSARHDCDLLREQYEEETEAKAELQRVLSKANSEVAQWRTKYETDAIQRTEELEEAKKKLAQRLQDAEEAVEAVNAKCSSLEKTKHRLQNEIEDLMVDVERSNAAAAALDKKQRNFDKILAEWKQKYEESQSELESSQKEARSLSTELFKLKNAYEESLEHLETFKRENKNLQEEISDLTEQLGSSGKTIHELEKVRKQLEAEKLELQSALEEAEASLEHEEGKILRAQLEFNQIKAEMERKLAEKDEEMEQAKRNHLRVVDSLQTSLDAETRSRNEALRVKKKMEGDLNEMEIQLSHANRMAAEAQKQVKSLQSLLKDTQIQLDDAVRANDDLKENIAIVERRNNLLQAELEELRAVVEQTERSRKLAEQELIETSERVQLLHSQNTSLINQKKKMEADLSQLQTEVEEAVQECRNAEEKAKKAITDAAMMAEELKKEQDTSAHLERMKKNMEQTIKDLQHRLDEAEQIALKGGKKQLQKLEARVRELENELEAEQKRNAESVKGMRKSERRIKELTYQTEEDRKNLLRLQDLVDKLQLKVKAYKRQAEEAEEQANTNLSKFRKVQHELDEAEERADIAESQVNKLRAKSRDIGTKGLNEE

SMILES	Skeletal EC25 [1]	Atrial EC25 [2]	Ventricular EC25 [3]
Cc1c(C(C)C(=O)N[C@@H](C)c2ccc(F)cc2F)c(=O)[nH]c2ccnc(C#N)c12 (stereo partly drawn) [compound 363]	40 nM	360 nM	2830 nM
C[C@H](NC(=O)Cc1cc2nc(Cl)ccc2[nH]c1=O)c1ccc(F)cc1F [compound 388]	670 nM	1080 nM	38060 nM
C[C@H](NC(=O)Cc1cc2c(OCC(F)F)nccc2[nH]c1=O)c1ccc(F)cc1F [compound 389]	250 nM	710 nM	100000 nM
C[C@H](NC(=O)Cc1cc2nc(Cl)ncc2[nH]c1=O)c1ccc(F)cc1F [compound 390]	7060 nM	100000 nM	44800 nM
C[C@H](NC(=O)Cc1cc2nc(F)ccc2[nH]c1=O)c1ccc(F)cc1F [compound 392]	70 nM	130 nM	2650 nM
Cc1c(CC(=O)N[C@@H](C)c2ccc(F)cc2F)c(=O)[nH]c2ccc(C(F)(F)F)nc12 [compound 393]	20 nM	2460 nM	420 nM
C[C@H](NC(=O)Cc1cc2c(F)nccc2[nH]c1=O)c1ccc(F)cc1F [compound 394]	30 nM	270 nM	530 nM
C[C@H](NC(=O)Cc1cc2nc(C(F)(F)F)ccc2[nH]c1=O)c1ccc(F)cc1F [compound 397]	1870 nM	100000 nM	32400 nM
Cc1c(CC(=O)N[C@@H](C)c2ccc(F)cc2F)c(=O)[nH]c2ccc(OCC(F)(F)F)nc12 [compound 400]	360 nM	1550 nM	100000 nM
Cc1c(C(F)(F)C(=O)N[C@@H](C)c2ccc(F)cc2F)c(=O)[nH]c2ccnc(Cl)c12 [compound 401]	20 nM	50 nM	200 nM
Cc1nccc2[nH]c(=O)c(C(F)(F)C(=O)N[C@@H](C)c3ccc(F)cc3F)c(C)c12 [compound 405]	40 nM	150 nM	1120 nM
Cc1nccc2[nH]c(=O)c(CC(=O)N[C@H]3CCc4cc(F)cc(F)c43)c(C)c12 [compound 406]	20 nM	100 nM	380 nM
COc1ccc2[nH]c(=O)c(CC(=O)N[C@@H](C)c3ccc(F)cc3F)c(C)c2n1 [compound 409]	30 nM	40 nM	590 nM
C[C@H](NC(=O)Cc1c(C(F)(F)F)c2ncccc2[nH]c1=O)c1ccc(F)cc1F [compound 417]	170 nM	9700 nM	9500 nM
Cc1ccc2[nH]c(=O)c(CC(=O)N[C@@H](C)c3ccc(F)cc3F)c(C(F)(F)F)c2n1 [compound 419]	190 nM	490 nM	100000 nM
Cc1ccc2[nH]c(=O)c(CC(=O)N[C@@H](C)c3ccc(F)cc3F)c(C)c2n1 [compound 420]	190 nM	110 nM	2340 nM
C#Cc1nccc2[nH]c(=O)c(CC(=O)N[C@@H](C)c3ccc(F)cc3F)cc12 [compound 431]	800 nM	11130 nM	50880 nM
C[C@H](NC(=O)Cc1cc2c(C(F)(F)F)nccc2[nH]c1=O)c1ccc(F)cc1F [compound 435]	380 nM	32520 nM	19100 nM
C[C@H](NC(=O)Cc1cc2c(OCC(F)(F)F)nccc2[nH]c1=O)c1ccc(F)cc1F [compound 436]	12920 nM	100000 nM	100000 nM
CCc1nccc2[nH]c(=O)c(CC(=O)N[C@@H](C)c3ccc(F)cc3F)cc12 [compound 437]	1280 nM	91430 nM	100000 nM
C[C@H](NC(=O)Cc1c(C(F)F)c2cnccc2[nH]c1=O)c1ccc(F)cc1F [compound 438]	600 nM	2350 nM	7680 nM
C[C@H](NC(=O)Cc1cc2c(Cl)nccc2[nH]c1=O)c1ccc(F)cc1F [compound 439]	100 nM	60 nM	470 nM

Other lines, results leading:

Skeletal EC25 [1]	Atrial EC25 [2]	Ventricular EC25 [3]	SMILES
370 nM	3040 nM	100000 nM	Cc1c(CC(=O)N[C@@H](C)c2ccc(F)cc2F)c(=O)[nH]c2ccnc(OCC(C)C)c12 [compound 371]
1610 nM	100000 nM	100000 nM	Cc1c(CC(=O)N[C@@H](C)c2ccc(F)cc2F)c(=O)[nH]c2ccnc(OCC(C)(C)F)c12 [compound 372]
10 nM	60 nM	290 nM	Cc1c(CC(=O)N[C@@H](C)c2ccc(F)cc2F)c(=O)[nH]c2ccnc(C(F)(F)F)c12 [compound 377]
10 nM	60 nM	770 nM	Cc1c(CC(=O)N[C@@H](C)c2ccc(F)cc2F)c(=O)[nH]c2ccnc(OCC(F)F)c12 [compound 380]
10 nM	100 nM	310 nM	CCOc1nccc2[nH]c(=O)c(CC(=O)N[C@@H](C)c3ccc(F)cc3F)c(C)c12 [compound 381]
40 nM	210 nM	11670 nM	CCCOc1nccc2[nH]c(=O)c(CC(=O)N[C@@H](C)c3ccc(F)cc3F)c(C)c12 [compound 384]
30 nM	60 nM	330 nM	COc1nccc2[nH]c(=O)c(CC(=O)N[C@@H](C)c3ccc(F)cc3F)c(C)c12 [compound 385]
30 nM	120 nM	1510 nM	Cc1c(CC(=O)N[C@@H](C)c2ccc(F)cc2F)c(=O)[nH]c2ccnc(OC3CC3)c12 [compound 386]
10 nM	50 nM	290 nM	Cc1c(CC(=O)N[C@@H](C)c2ccc(F)cc2F)c(=O)[nH]c2ccnc(F)c12 [compound 391]
20 nM	40 nM	190 nM	Cc1c(CC(=O)N[C@@H](C)c2ccc(F)cc2F)c(=O)[nH]c2ccnc(Cl)c12 [compound 402]
20 nM	100 nM	330 nM	Cc1cc(F)ccc1[C@H](C)NC(=O)Cc1c(C)c2c(C)nccc2[nH]c1=O [compound 407]
30 nM	160 nM	13930 nM	CCOc1ccc2[nH]c(=O)c(CC(=O)N[C@@H](C)c3ccc(F)cc3F)c(C)c2n1 [compound 414]
2190 nM	2660 nM	48430 nM	Cc1c(CC(=O)N[C@@H](C)c2ccc(F)cc2F)c(=O)[nH]c2ccnnc12 [compound 418]
200 nM	100000 nM	100000 nM	C[C@H](NC(=O)Cc1c(C(F)(F)F)c2c(C3CC3)nccc2[nH]c1=O)c1ccc(F)cc1F [compound 421]
30 nM	100000 nM	100000 nM	CCOc1nccc2[nH]c(=O)c(CC(=O)N[C@@H](C)c3ccc(F)cc3F)c(C(F)(F)F)c12 [compound 422]
340 nM	100000 nM	100000 nM	COc1nccc2[nH]c(=O)c(CC(=O)N[C@@H](C)c3ccc(F)cc3F)c(C(F)(F)F)c12 [compound 423]
90 nM	1350 nM	1940 nM	C[C@H](NC(=O)Cc1c(C(F)(F)F)c2c(Cl)nccc2[nH]c1=O)c1ccc(F)cc1F [compound 428]
250 nM	380 nM	11630 nM	Cc1nccc2[nH]c(=O)c(CC(=O)N[C@@H](C)c3ccc(F)cc3F)c(C(F)(F)F)c12 [compound 430]
470 nM	16070 nM	80530 nM	C[C@H](NC(=O)Cc1cc2c(C3CC3)nccc2[nH]c1=O)c1ccc(F)cc1F [compound 432]
30 nM	150 nM	640 nM	Cc1nccc2[nH]c(=O)c(CC(=O)N[C@@H](C)c3ccc(F)cc3F)c(C)c12 [compound 433]
130 nM	650 nM	3840 nM	COc1nccc2[nH]c(=O)c(CC(=O)N[C@@H](C)c3ccc(F)cc3F)cc12 [compound 434]
